# Literature values in patent publication US20070020197A1, “Preparation of pharmaceutical compositions containing nanoparticles” (WARNER-LAMBERT COMPANY LLC, priority 2004, published 2007).
# Settings: mean particle size reduced from 4.15 μm to 0.45 μm
smiles,measurement,value
O=C(NC(=O)c1ccccc1[N+](=O)[O-])Nc1ccc(Oc2ncc(Br)cn2)c(Cl)c1 [HO-221],bioavailability change,doubling
